≈ marks a conversion by molar mass, not a printed value.
Experiments:
Candida albicans [1] = test: Antifungal activity against yeast form of Candida albicans; assay type: functional
Candida albicans [2] = test: Antifungal activity against mycelial form of Candida albicans; assay type: functional

| Compound | MIC (Candida albicans [1]) [µg/mL] | MIC (Candida albicans [2]) [µg/mL] |
| --- | --- | --- |
| CCC[C@@H](NC(=O)C(O)C(C)CC)C(=O)N[C@H]1CCCNC(=O)[C@H](Cc2c[nH]c3ccc(O)cc23)NC(=O)/C=C/c2coc(n2)[C@H](C)NC(=O)C(=O)[C@H](CC(C)C)NC(=O)[C@@H]2CCCN2C1=O (some centres undefined) [DISCOBAHAMIN A] | 25 (≈ 26.8 µM) | 50 (≈ 53.6 µM) |
| CCC(C)C(O)C(=O)N[C@H](CC(C)C)C(=O)N[C@H]1CCCNC(=O)[C@H](Cc2c[nH]c3ccc(O)cc23)NC(=O)/C=C/c2coc(n2)[C@H](C)NC(=O)C(=O)[C@H](CC(C)C)NC(=O)[C@@H]2CCCN2C1=O (some centres undefined) [DISCOBAHAMIN B] | 25 (≈ 26.4 µM) | 50 (≈ 52.8 µM) |

From ChEMBL document CHEMBL1149030, “Discobahamins A and B, new peptides from the Bahamian deep water marine sponge Discodermia sp” (1994)
